Measurements as given in patent US20210330756A1, “Acetylation of Miro1” (University of South Carolina, priority 2020, published 2021).

System: Miro1-AcK105
Experiment: Miro1-AcK105 levels in DRG cultures by immunoblotting and immunofluorescence
Format: cell-based, rat
Text: The three reported acetylation sites for Miro1 in human cell lines K92, K512, and K618 (Choudhary et al., 2009; Lundby et al., 2012) correspond to K105, K525, and K629 in rat Miro1 (FIG. 6 at D). We generated Lys-to-Ala mutants for K105, K525, and K629 to determine if these Miro1 residues are acetylated in neurons (Myc-Miro1K105A , Myc-Miro1K525A , and […]; FIG. 6 at D). […] To more definitively assess acetylation of K105, we used acetylated Miro1 peptides to generate an anti-Miro1-AcK105 antibody.
For immunoblotting, protein lysates or immunoprecipitates were denatured by boiling in Laemmli sample buffer, fractionated by SDS-PAGE, and transferred to nitrocellulose membranes. Blots were blocked for 1 h at room temperature with 5% nonfat dry milk in TBS with 0.1% Tween 20 (TBST). Primary antibodies diluted in 5% BSA in TBST were added to the membranes and incubated overnight at 4° C. with rocking. Primary antibodies consisted of rabbit anti-Myc (1:2,000; Cell Signaling; 71D10), rabbit anti-RHOT1 antibody (1:1,000; Aviva Systems Biology; ARP44817 P050), rabbit anti-HDAC6 antibody (1:2,000; Cell Signaling; 7558), rabbit anti-ERK1 (1:5,000; Abcam; ab32537), and affinity-purified custom rabbit anti-Miro1-AcK105 (1:2,500; Twiss laboratory, see above) antibodies. For the anti-Miro1-AcK105 antibody, preimmune and test-bleed sera were used at 1:1,000 dilutions to initially evaluate for specificity. After washing in TBST, blots were incubated with HRP-conjugated anti-rabbit IgG antibodies (1:5,000; Jackson Immunoresearch) diluted in blocking buffer for 1 h at room temperature. Signals were detected using ECL Prime (GE Healthcare) after extensive washing.
Standard immunofluorescence methods were used as previously described (Merianda et al., 2009) at room temperature unless specified otherwise. Briefly, coverslips were rinsed in PBS, fixed in buffered 3.7% PFA for 15-20 min, and washed twice in PBS. Cultures were permeabilized with PBS plus 0.3% Triton X-100 (PBST; Sigma-Aldrich) for 5 min. Coverslips were blocked in 2% BSA and 2% FBS (Gemini) for 1 h. […]

| SMILES | Miro1-AcK105 overall by immunoblotting (10 μg/ml aggrecan or 1 μM thapsigargin, 4 h) | Miro1-AcK105 in axons by immunofluorescence (aggrecan- or thapsigargin-treated cultures) | anti-Miro1-AcK105 immunoblot signal (DRG lysates ± 10 μM TubA) |
| --- | --- | --- | --- |
| C/C=C(/C)C(=O)O[C@H]1C(C)=C2[C@H]([C@@H]1OC(=O)CCCCCCC)[C@@](C)(OC(C)=O)C[C@H](OC(=O)CCC)[C@@]1(O)[C@H]2OC(=O)[C@@]1(C)O [thapsigargin] | decreased Miro1-AcK105 | decreased Miro1-AcK105 | – |
| CN1CCc2c(c3ccccc3n2Cc2ccc(C(=O)NO)cc2)C1 [TubA, tubastatin] | – | – | clear increase in signal |
